Measured values published in ChEMBL document CHEMBL1154295, “Potent and selective steroidal inhibitors of 17beta-hydroxysteroid dehydrogenase type 7, an enzyme that catalyzes the reduction of the key hormones estrone and dihydrotestosterone” (J Med Chem, 2009).

What was measured:
[1] = target: T1, 3-keto-steroid reductase/17-beta-hydroxysteroid dehydrogenase 7 (Homo sapiens) (UniProt P56937); conditions: HEK293, at 0.3 µM
T1 sequence (whole entry): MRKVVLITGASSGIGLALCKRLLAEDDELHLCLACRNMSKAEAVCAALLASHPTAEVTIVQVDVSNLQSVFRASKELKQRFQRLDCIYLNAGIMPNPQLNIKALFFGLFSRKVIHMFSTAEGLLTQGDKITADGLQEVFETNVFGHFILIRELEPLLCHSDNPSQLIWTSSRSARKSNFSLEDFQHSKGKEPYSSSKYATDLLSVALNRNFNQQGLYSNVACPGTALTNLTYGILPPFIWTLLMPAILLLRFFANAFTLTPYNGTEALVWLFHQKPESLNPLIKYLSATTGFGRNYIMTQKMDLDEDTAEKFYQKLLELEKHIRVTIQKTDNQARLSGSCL
Description: Inhibition of human 17beta-HSD7 expressed in HEK293 cells assessed as inhibition of reduction of [14C]estrone into [14C]estradiol at 0.3 uM after 7 hrs

[2] = target: T1, 3-keto-steroid reductase/17-beta-hydroxysteroid dehydrogenase 7 (Homo sapiens); conditions: HEK293, at 3 µM
Description: Inhibition of human 17beta-HSD7 expressed in HEK293 cells assessed as inhibition of reduction of [14C]estrone into [14C]estradiol at 3 uM after 7 hrs

Structure (SMILES) | inhibition [1] | inhibition [2]
CN1C(=O)CC[C@]2(C)[C@H]3CC[C@]4(C)[C@@H](N(C(=O)c5ccccc5)c5ccccc5)CC[C@H]4[C@@H]3CC[C@@H]12 | 31.9% | 64.1%
C[C@]12CC[C@](O)(CCc3ccccc3)C[C@@H]1CC[C@@H]1[C@@H]2CC[C@]2(C)C(=O)CC[C@@H]12 | 0% | 17.4%
CCCNC(=O)N(C1CC1)[C@H]1CC[C@H]2[C@@H]3CC[C@H]4N(C)C(=O)C=C[C@]4(C)[C@H]3CC[C@]12C | 7.8% | 8.5%
C[C@]12CCC(=O)C=C1CC[C@@H]1[C@@H]2[C@@H](O)C[C@]2(C=O)[C@@H](C(=O)CO)CC[C@@H]12 | 14.4% | 7.3%
CC(C)NC(=O)N(C1CC1)[C@H]1CC[C@H]2[C@@H]3CC[C@H]4N(C)C(=O)CC[C@]4(C)[C@H]3CC[C@]12C | 16.5% | 37.3%
CC1(C)CC[C@@]2(CC[C@H]3[C@@H]4CCc5cc(C(N)=O)ccc5[C@H]4CC[C@@]32C)OC1=O | 11.6% | 27%
CC1(C)CC[C@@]2(CC[C@H]3[C@@H]4CCc5cc(C#N)ccc5[C@H]4CC[C@@]32C)OC1=O | 23.8% | 34.6%
CC1CC(=O)O[C@]2(CC[C@H]3[C@@H]4CCc5cc(O)ccc5[C@H]4CC[C@@]32C)C1 (stereo not given in full) | 14% | 22.9%
CC1(C)CC[C@@]2(CC[C@H]3[C@@H]4CCc5cc(OP(=O)(O)O)ccc5[C@H]4CC[C@@]32C)OC1=O | 0% | 16.5%
CC(=O)S[C@@H]1CC2=CC(=O)CC[C@]2(C)[C@H]2CC[C@@]3(C)[C@@H](CC[C@@]34CCC(=O)O4)[C@H]12 | 7.2% | 7.5%
C[C@]12CCC(=O)N[C@@H]1CC[C@@H]1[C@@H]2CC[C@]2(C)[C@@H](N3CCC3=O)CC[C@@H]12 | 15.4% | 20.3%
C[C@]12CC[C@@H](O)C[C@@H]1CC[C@@H]1[C@@H]2CC[C@]2(C)[C@@H](O)CC[C@@H]12 | 1.1% | 8.4%
CN1C(=O)CC[C@]2(C)[C@H]3CC[C@]4(C)[C@@H](NC(=O)C(C)(C)C)CC[C@H]4[C@@H]3CC[C@@H]12 | 13.5% | 55.9%
CC(C)(C#N)c1cc(Cn2cncn2)cc(C(C)(C)C#N)c1 | 6.5% | 0.3%
CC1(C)CC[C@@]2(CC[C@H]3[C@@H]4CCc5cc(O)ccc5[C@H]4CC[C@@]32C)OC1=O | 20.1% | 69.4%
CCCCCN(C=O)[C@H]1CC[C@H]2[C@@H]3CC[C@H]4NC(=O)CC[C@]4(C)[C@H]3CC[C@]12C | 35.2% | 89.1%
CN(C=O)[C@H]1CC[C@H]2[C@@H]3CC[C@H]4N(C)C(=O)CC[C@]4(C)[C@H]3CC[C@]12C | 14.5% | 15.8%
COC(=O)[C@H]1CC[C@H]2[C@@H]3CC=C4C=C(Cl)CC[C@]4(C)[C@H]3CC[C@]12C | 0.6% | 16.2%
C[C@]12CC[C@@H]3c4ccc(O)cc4CC[C@H]3[C@@H]1C[C@@H](CCBr)[C@@H]2O | 5.8% | 4.5%
C[C@]12CC[C@@]3(C[C@H]1CC[C@@H]1[C@@H]2CC[C@]2(C)C(=O)CC[C@@H]12)CN(CC(CN1CCOCC1)OC(=O)CCC1CCCC1)C(=O)O3 (stereo not given in full) | 18.9% | 8.7%
CC(C)C(=O)Nc1ccc([N+](=O)[O-])c(C(F)(F)F)c1 | 18.6% | 10.8%
CC1(C)CC[C@@]2(CC[C@H]3[C@@H]4CCc5c(cc(Cl)c(O)c5Cl)[C@H]4CC[C@@]32C)OC1=O | 20.2% | 37%
CN1C(=O)CC[C@]2(C)[C@H]3CC[C@]4(C)[C@@H](N(C=O)C5CCCCC5)CC[C@H]4[C@@H]3CC[C@@H]12 | 23.9% | 75.2%

Structure (SMILES) | inhibition [1] | inhibition [2]
CN1C(=S)CC[C@]2(C)[C@H]3CC[C@@]4(C)[C@@H](CC[C@@]45CCCC(=O)O5)[C@@H]3CC[C@@H]12 | 11.9% | 12.9%
CC(C)C(=O)N(c1ccc([N+](=O)[O-])c(C(F)(F)F)c1)[C@H]1CC[C@H]2[C@@H]3CC[C@H]4N(C)C(=O)CC[C@]4(C)[C@H]3CC[C@]12C | 13.7% | 71.3%
CC(C)(C)NC(=O)[C@H]1CC[C@H]2[C@@H]3CC=C4C=C(Cl)CC[C@]4(C)[C@H]3CC[C@]12C | 13.4% | 56.8%
CCCCN(C)C(=O)C[C@@H]1Cc2cc(O)ccc2[C@H]2CC[C@@]3(C)[C@@H](CC[C@@]34CCC(=O)O4)[C@H]12 | 17.1% | 15.5%
CC(C)NC(=O)N(C1CC1)[C@H]1CC[C@H]2[C@@H]3CC[C@H]4N(C)C(=O)C=C[C@]4(C)[C@H]3CC[C@]12C | 3.6% | 2.5%
CCCCCNC(=O)[C@H]1CC[C@H]2[C@@H]3CC[C@H]4N(C)C(=O)CC[C@]4(C)[C@H]3CC[C@]12C | 52.7% | 96.3%
CN(C)C(=O)c1ccc2c(c1)CC[C@@H]1[C@@H]2CC[C@@]2(C)[C@H]1CC[C@@]21CCC(C)(C)C(=O)O1 | 15.2% | 36.1%
CN1C(=O)CC[C@]2(C)[C@H]3CC[C@@]4(C)[C@@H](CC[C@@]4(O)C#CC(C)(C)I)[C@@H]3CC[C@@H]12 | 20.2% | 72%
C[C@]12CCC(=O)C(O)=C1CC[C@@H]1[C@@H]2CC[C@]2(C)C(=O)CC[C@@H]12 | 8.1% | 7.1%
CN(C(=O)NC1CCCCC1)[C@H]1CC[C@H]2[C@@H]3CC[C@H]4N(C)C(=O)CC[C@]4(C)[C@H]3CC[C@]12C | 12.2% | 16.3%
C[C@]12CC[C@@H]3c4ccc(O)cc4CC[C@H]3[C@@H]1CC[C@@]21CCC(=O)O1 | 3.9% | 3.1%
C[C@]12CC[C@H]3[C@@H](CCC4=CC(=O)CC[C@@]43C)[C@@H]1CC[C@@H]2C(=O)CO | 11.2% | 11.9%
CC1(C)C[C@@]2(CC[C@H]3[C@@H]4CCc5cc(O)ccc5[C@H]4CC[C@@]32C)OC1=O | 14.5% | 42.4%
C[C@@]12CCC[C@H]1[C@@H]1CCc3cc(O)ccc3[C@H]1CC2 | 4.5% | 6%
CC1(C)CC[C@@]2(CC[C@H]3[C@@H]4CCc5cc(C(=O)Oc6ccccc6)ccc5[C@H]4CC[C@@]32C)OC1=O | 14% | 28.6%
C[C@]12CCC(=O)C[C@@H]1CC[C@@H]1[C@@H]2CC[C@@]2(C)[C@H]1CC[C@@]21CCCC(=O)O1 | 18.6% | 30.9%
CCC[C@]1(O)CC[C@H]2[C@@H]3CC[C@H]4N(C)C(=O)CC[C@]4(C)[C@H]3CC[C@@]21C | 47.6% | 98.5%
COc1cc2c(cc1O)CC[C@@H]1[C@@H]2CC[C@]2(C)C(=O)CC[C@@H]12 | 18.4% | 13.4%
CC1(C)CC[C@@]2(CC[C@H]3[C@@H]4CCC5CC(=O)CC[C@]5(C)[C@H]4CC[C@@]32C)OC1=O (stereo not given in full) | 2.2% | 26.4%
CN1C(=O)CC[C@]2(C)[C@H]3CC[C@]4(C)[C@@H](N5CCCC5=O)CC[C@H]4[C@@H]3CC[C@@H]12 | 15.3% | 15.1%
C[C@]12CC[C@](O)(Cc3ccccc3)C[C@@H]1CC[C@@H]1[C@@H]2CC[C@]2(C)C(=O)CC[C@@H]12 | 19.3% | 22.2%
O=c1cc(-c2ccccc2)oc2cc(O)cc(O)c12 | 6.8% | 5.1%
